According to patent US20150224190A1, “Combination of a phosphoinositide 3-kinase inhibitor and an inhibitor of the IL-8/CXCR interaction” (priority 2012, published 2015):

Assays:
JAK2/STAT5 = JAK2/STAT5 phosphorylation in vivo models; set-up: species or system mice; details: after 8 hours of treatment
Protocol: Cells for Western Blotting and ELISA were lysed with RIPA buffer. […]
For assessing pJAK2 levels, an ELISA assay (Tyr1007/1008, Invitrogen) was applied because of cross-reactivity of all pJAK2 antibodies tested. Interleukin-8 levels in RIPA lysates, cell culture supernatants and mouse tail vein blood plasma were measured by ELISA, as well (Biolegend). […]
SCID/beige, SCID/NOD and Balb/c mice (Jackson Labs) were maintained under specific pathogen-free conditions and were used in compliance with protocols approved by the Institutional Animal Care and Use Committees of the FMI, which conform to institutional and national regulatory standards on experimental animal usage. […] Tumors were measured every 3 to 4 days with vernier calipers, and tumor volumes were calculated by the formula 0.5×(larger diameter)×(smaller diameter)^2. End point tumor sizes were analyzed for synergism using the formula AB/C<A/C×B/C, where C=tumor volume VHC, A=tumor volume compound 1, B=tumor volume compound 2, AB=tumor volume combination (Clarke, 1997). […]

IL-8 = IL-8 levels in dissected primary triple-negative breast tumors or plasma of mice (ELISA); format: in vivo, human; details: day 3 of treatment with 30 mg/kg BEZ235 vs vehicle
Protocol: FIG. 5. BEZ235 treatment activates JAK2/STAT5 and IL-8 secretion in human primary triple-negative breast tumors Bar graphs showing IL-8 levels measured by ELISA in the dissected tumors from or in the plasma of mice at day 3 of treatment with 30 mg/kg BEZ235 or vehicle (VHC). Results represent means±SEM (n=3-4, *P<0.05). For assessing pJAK2 levels, an ELISA assay ([…]/1008, Invitrogen) was applied because of cross-reactivity of all pJAK2 antibodies tested. Interleukin-8 levels in RIPA lysates, cell culture supernatants and mouse tail vein blood plasma were measured by ELISA, as well (Biolegend). Cytokine arrays on cell culture supernatants and mouse tumor lysates were performed according the manufacture's protocol (R & D systems, Human and Mouse cytokine array panel A). […] Tumors were measured every 3 to 4 days with vernier calipers, and tumor volumes were calculated by the formula 0.5×(larger diameter)×(smaller diameter)^2. End point tumor sizes were analyzed for synergism using the formula AB/C<A/C×B/C, where C=tumor volume VHC, A=tumor volume compound 1, B=tumor volume compound 2, AB=tumor volume combination (Clarke, 1997).

Cn1c(=O)n(-c2ccc(C(C)(C)C#N)cc2)c2c3cc(-c4cnc5ccccc5c4)ccc3ncc21 [COMPOUND A, 2-methyl-2-[4-(3-methyl-2-oxo-8-quinolin-3-yl-2,3-dihydro-imidazo[4,5-c]quinolin-1-yl)-phenyl]-propionitrile]
pJAK2 (JAK2/STAT5): considerable upregulation | pSTAT5 (JAK2/STAT5): considerable upregulation | IL-8 secretion (IL-8 levels in tumors or plasma) (IL-8): activates
